Reference: article PMC7497630, “Coibamide A Targets Sec61 to Prevent Biogenesis of Secretory and Membrane Proteins” (ACS Chemical Biology, 2020)
Bridge positions count the residues as written; N and C are the ends. Square brackets hold non-standard residues; d marks the D form. Peptide text beside a SMILES is read from it. * marks the point of attachment. Phe(4-CF3-diazirinyl) = N[C@@H](Cc1ccc(C2(C(F)(F)F)N=N2)cc1)C(=O)O; NMe2Val = CC(C)[C@@H](C(=O)*)N(C)C; NMeI = CC[C@H](C)[C@H](NC)C(=O)O; NMeT = CN[C@H](C(=O)O)[C@@H](C)O; NMeL = CN[C@@H](CC(C)C)C(=O)O; NMePra = C#CC[C@H](NC)C(=O)O; dHiv = CC(C)[C@@H](O)C(=O)O; NMeS = CN[C@@H](CO)C(=O)O; Pra = C#CC[C@H](N)C(=O)O; dNMeA = CN[C@H](C)C(=O)O

Columns and labels:
[1] = molecular target: Sec61α in U87-MG glioblastoma cells (Homo sapiens, UniProt P61619); test: Cellular thermal shift assay; format: cell-based; details: intact U87-MG cells
Chain of Sec61α in U87-MG glioblastoma cells (P61619 whole entry): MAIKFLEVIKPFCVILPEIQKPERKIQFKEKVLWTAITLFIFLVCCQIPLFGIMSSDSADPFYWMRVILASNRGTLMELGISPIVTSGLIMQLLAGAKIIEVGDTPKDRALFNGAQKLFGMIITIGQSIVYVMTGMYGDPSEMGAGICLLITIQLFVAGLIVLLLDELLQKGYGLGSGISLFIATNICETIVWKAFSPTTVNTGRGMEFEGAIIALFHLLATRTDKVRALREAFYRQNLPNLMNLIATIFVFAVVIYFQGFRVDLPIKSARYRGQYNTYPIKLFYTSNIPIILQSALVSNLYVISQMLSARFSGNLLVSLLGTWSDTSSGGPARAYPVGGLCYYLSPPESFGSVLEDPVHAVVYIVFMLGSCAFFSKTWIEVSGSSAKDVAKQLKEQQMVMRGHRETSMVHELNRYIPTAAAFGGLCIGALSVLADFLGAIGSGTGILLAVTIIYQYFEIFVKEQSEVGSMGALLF
Chain of Sec61α in U87-MG glioblastoma cells (P60468 2-96 partner limits assumed): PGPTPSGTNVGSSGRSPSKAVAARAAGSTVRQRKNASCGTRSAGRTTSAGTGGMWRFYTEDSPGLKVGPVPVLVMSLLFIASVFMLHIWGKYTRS
Chain of Sec61α in U87-MG glioblastoma cells (P60059 whole entry partner): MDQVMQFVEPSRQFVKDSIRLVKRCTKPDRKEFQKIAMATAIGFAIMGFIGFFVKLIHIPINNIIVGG

[2] = test system: HCT116 cells; test: Cell viability, Alamar Blue assay; format: cell-based, human; details: HCT116, 72 h, 0.1% DMSO (Figure 1D), read-out: IC50
Protocol: Figure 1 Cytotoxicity of synthetic and Pra-containing coibamides. (A) Structure of CbA. (B) Human MDA-MB-231 breast cancer cells were treated with increasing concentrations of synthetic CbA or vehicle (0.1% DMSO) and cell viability assessed at 72 h by an MTS end-point assay. (C) Structure of Photo-CbA. (D) Human HCT116 cells were treated with increasing concentrations of synthetic or photo-CbA in 0.1% DMSO, and cell viability assessed at 72 h by Alamar Blue assay. TEXT PRINTED IN THE PICTURE: (B) CbA: MDA-MB-231 cell line: IC50(nM): 1.6 | (D) CbA: HCT 116 cell line: IC50(nM): 29.2 | (D) Photo-CbA: HCT 116 cell line: IC50(nM): 6.5
Figure 5 CbA mode of inhibition is specific compared to known Sec61 inhibitors. (A) Cell viability was measured by Alamar Blue assay (mean ± SD, n = 4, all cell lines assayed simultaneously) for HCT-116 cell lines isolated on the basis of CbA resistance in the presence of concentration series of indicated compounds. (B) Cell viability was measured by Alamar Blue assay (mean ± SD, n = 4, all cell lines assayed simultaneously) for HEK293FRT cells stably expressing Sec61α mutants in the presence of concentration series of indicated compounds. (C) Comparison of published NCI60 data for CbA,[3] AprA,[11] and IpoF.[33] The heat map was derived by plotting each GI50 value divided by the median GI50 for that compound. X indicates a cell line that was not tested. Closed arrowhead indicates cell lines with most notable differences across the three compounds. […]
A431, HEK293T, and HEK293FRT cells were cultured in DMEM supplemented with 10% FBS. […] Viability was estimated by the addition of Alamar Blue (Life Technologies) and measuring fluorescence after a further 4 h. […]

[3] = test system: A549 human lung adenocarcinoma cells; details: 72 h

SMILES	IC50 [3] [nM]	further results
NCC(=O)Nc1ccc(-n2nc(C(F)(F)F)cc2-c2ccc3c(ccc4ccccc43)c2)cc1 [OSU-03012]		Sec61α detection at 60–66 °C (melting curve) ([1]; 45 to 72 °C for 3 min, 3 μM OSU-03012, 1 h): relatively weak immunoreactivity; stabilization of Sec61α, isothermal dose–response ([1]; 51 °C for 3 min, OSU-03012 0.03 nM to 10 μM): no apparent stabilization
C#CC[C@@H](C(=O)N(C)[C@@H](CC(C)C)C(=O)N(C)[C@@H]1C(=O)N(C)[C@@H](COC)C(=O)N(C)[C@@H]([C@@H](C)CC)C(=O)N[C@@H](C)C(=O)N(C)[C@@H](CC(C)C)C(=O)N[C@@H](Cc2ccc(C3(C(F)(F)F)N=N3)cc2)C(=O)N(C)[C@H](C)C(=O)O[C@@H]1C)N(C)C(=O)[C@H](OC(=O)[C@H](C(C)C)N(C)C)C(C)C [Photo-CbA] (NMe2Val-[dHiv][NMePra][NMeL][NMeT][NMeS](Me)[NMeI]A[NMeL][Phe(4-CF3-diazirinyl)][dNMeA]; ester 4-C)		IC50 [2]: 6.5 nM
C#CC[C@@H](C(=O)N(C)[C@@H](CC(C)C)C(=O)N(C)[C@@H]1C(=O)N(C)[C@@H](COC)C(=O)N(C)[C@@H]([C@@H](C)CC)C(=O)N[C@@H](C)C(=O)N(C)[C@@H](CC(C)C)C(=O)N[C@@H](Cc2ccc(OC)cc2)C(=O)N(C)[C@H](C)C(=O)O[C@@H]1C)N(C)C(=O)[C@H](OC(=O)[C@H](C(C)C)N(C)C)C(C)C [R3 = propargyl] (NMe2Val-[dHiv][NMePra][NMeL][NMeT][NMeS](Me)[NMeI]A[NMeL]Y(Me)[dNMeA]; ester 4-C)	1.7 ± 0.3	
C#CC[C@@H](C(=O)N(C)[C@@H]1C(=O)N(C)[C@@H](COC)C(=O)N(C)[C@@H]([C@@H](C)CC)C(=O)N[C@@H](C)C(=O)N(C)[C@@H](CC(C)C)C(=O)N[C@@H](Cc2ccc(OC)cc2)C(=O)N(C)[C@H](C)C(=O)O[C@@H]1C)N(C)C(=O)[C@H](COC)N(C)C(=O)[C@H](OC(=O)[C@H](C(C)C)N(C)C)C(C)C [R4 = propargyl] (NMe2Val-[dHiv][NMeS](Me)[NMePra][NMeT][NMeS](Me)[NMeI]A[NMeL]Y(Me)[dNMeA]; ester 4-C)	3.7 ± 0.5	
C#CC[C@H]1C(=O)N(C)[C@@H]([C@@H](C)CC)C(=O)N[C@@H](C)C(=O)N(C)[C@@H](CC(C)C)C(=O)N[C@@H](Cc2ccc(OC)cc2)C(=O)N(C)[C@H](C)C(=O)O[C@H](C)[C@H](N(C)C(=O)[C@H](CC(C)C)N(C)C(=O)[C@H](COC)N(C)C(=O)[C@H](OC(=O)[C@H](C(C)C)N(C)C)C(C)C)C(=O)N1C [R6 = propargyl] (NMe2Val-[dHiv][NMeS](Me)[NMeL][NMeT][NMePra][NMeI]A[NMeL]Y(Me)[dNMeA]; ester 4-C)	2 ± 0.9	
C#CC[C@H]1C(=O)N[C@@H](C)C(=O)N(C)[C@@H](CC(C)C)C(=O)N[C@@H](Cc2ccc(OC)cc2)C(=O)N(C)[C@H](C)C(=O)O[C@H](C)[C@H](N(C)C(=O)[C@H](CC(C)C)N(C)C(=O)[C@H](COC)N(C)C(=O)[C@H](OC(=O)[C@H](C(C)C)N(C)C)C(C)C)C(=O)N(C)[C@@H](COC)C(=O)N1C [R7 = propargyl] (NMe2Val-[dHiv][NMeS](Me)[NMeL][NMeT][NMeS](Me)[NMePra]A[NMeL]Y(Me)[dNMeA]; ester 4-C)	9.3 ± 3.4	
C#CC[C@@H]1NC(=O)[C@H]([C@@H](C)CC)N(C)C(=O)[C@H](COC)N(C)C(=O)[C@@H](N(C)C(=O)[C@H](CC(C)C)N(C)C(=O)[C@H](COC)N(C)C(=O)[C@H](OC(=O)[C@H](C(C)C)N(C)C)C(C)C)[C@@H](C)OC(=O)[C@@H](C)N(C)C(=O)[C@H](Cc2ccc(OC)cc2)NC(=O)[C@H](CC(C)C)N(C)C1=O [R8 = propargyl] (NMe2Val-[dHiv][NMeS](Me)[NMeL][NMeT][NMeS](Me)[NMeI][Pra][NMeL]Y(Me)[dNMeA]; ester 4-C)	66 ± 15	
C#CC[C@H]1C(=O)N[C@@H](Cc2ccc(OC)cc2)C(=O)N(C)[C@H](C)C(=O)O[C@H](C)[C@H](N(C)C(=O)[C@H](CC(C)C)N(C)C(=O)[C@H](COC)N(C)C(=O)[C@H](OC(=O)[C@H](C(C)C)N(C)C)C(C)C)C(=O)N(C)[C@@H](COC)C(=O)N(C)[C@@H]([C@@H](C)CC)C(=O)N[C@@H](C)C(=O)N1C [R9 = propargyl] (NMe2Val-[dHiv][NMeS](Me)[NMeL][NMeT][NMeS](Me)[NMeI]A[NMePra]Y(Me)[dNMeA]; ester 4-C)	19 ± 7.6	
